# PMC10247784, “Physiological activation of human and mouse bitter taste receptors by bile acids” (Communications Biology, 2023)
# Molecular target: T1, mouse Tas2r144 (Mus musculus, UniProt Q7TQB8)
# T1 construct: expressed in transfected cells; host or cells: HEK293T-Gα16gust44
# Assay: Calcium imaging assay (FLIPR), HEK293T-Gα16gust44 cells transfected with mouse Tas2r144
# Assay type: cell-based
# Method: This set of bile acids was chosen because of their commercial availability in high purities, their diversity within the class of bile acids and their previous detection and quantitation in human blood. Stock solutions were prepared in DMSO.
# As basal growth medium for the HEK293T-Gα16gust44 cell line[17],[59] served Dulbecco’s modified eagle medium (DMEM) (Thermo Fisher Scientific, Darmstadt, Germany) supplemented with 10 % fetal bovine serum (Sigma-Aldrich, Steinheim, Germany), 2 mM L-glutamine (Sigma-Aldrich, Steinheim, Germany), 100 units/ml penicillin (Sigma Aldrich, Steinheim, Germany) and 100 µg/ml streptomycin (Sigma Aldrich, Steinheim, Germany). Growth conditions were 37 °C, 5 % CO2 and saturated air-humidity[60].
# HEK293T-Gα16gust44 cells were seeded on poly-D-lysine (10 µg/ml) coated 96-well plates to reach a confluence of 40-60 % the next day. For transient transfection 150 ng of plasmid DNA containing the receptor of interest and 0.3 µl lipofectamine 2000 (Thermo Fisher Scientific, Darmstadt, Germany) per well were used and transfection took place according to the manual of lipofectamine 2000. […] The empty vector DNA (mock) was transfected as negative control[14],[41].
# Cells were loaded using the calcium-sensitive fluorescent dye Fluo-4-AM (Abcam, Cambridge, Great Britain) in the presence of 2.5 mM probenecid (Sigma-Aldrich, Steinheim, Germany) the day after transfection[13],[41]. 1 h after loading, cells were washed with C1 buffer using a BioTek Cell Washer, incubated in the dark for half an hour and washed again. For automated agonist application and measurement of fluorescence changes, a FLIPR^TETRA device (Molecular Devices, San José, United States) was used. Viability of cells was tested by application of 100 nM Somatostatin 14 (Bachem, Bubendorf, Switzerland)[42].
# Measured data were negative control corrected by subtracting the signal of the mock-transfected cells and exported to Microsoft Excel using the FLIPR software ScreenWorks 4.2. In Microsoft Excel software, standardization of maximum fluorescence intensities to the basal fluorescence and normalization to the buffer-only control was done to calculate the relative fluorescence changes (ΔF/F).
# Initial screening experiments performed in duplicate wells were confirmed by at least one replication and representative traces were selected for display. All dose-response relationships were determined by three independent experiments (biological replicates) performed in duplicates (technical replicates). Threshold concentrations, defined as lowest substance concentrations leading to statistically significant elevated fluorescence changes in receptor-transfected cells compared with empty vector-transfected cells, were determined using SigmaPlot with Student’s t-test to evaluate statistical significance (p < 0.01).
# T1 sequence (Q7TQB8 whole entry): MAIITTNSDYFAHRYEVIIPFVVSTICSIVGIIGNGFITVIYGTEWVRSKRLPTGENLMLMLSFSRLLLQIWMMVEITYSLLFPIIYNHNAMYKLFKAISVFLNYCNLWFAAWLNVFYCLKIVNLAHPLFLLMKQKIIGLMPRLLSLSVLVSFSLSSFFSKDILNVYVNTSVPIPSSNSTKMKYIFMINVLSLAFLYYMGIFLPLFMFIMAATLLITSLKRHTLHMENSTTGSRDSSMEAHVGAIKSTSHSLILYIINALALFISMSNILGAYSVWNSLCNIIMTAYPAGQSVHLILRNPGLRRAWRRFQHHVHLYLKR
smiles,measurement,setting,value
"C[C@H](CCC(=O)O)[C@H]1CC[C@H]2[C@@H]3[C@H](O)C[C@@H]4C[C@H](O)CC[C@]4(C)[C@H]3C[C@H](O)[C@]12C [Cholic Acid, cholic acid]",RLU,Time 0 s,0 RLU
same,RLU,Time 2 s,0.2042 RLU
same,RLU,Time 4 s,5.384 RLU
same,RLU,Time 6 s,-45.6095 RLU
same,RLU,Time 8 s,13.5839 RLU
same,RLU,Time 12 s,34.8706 RLU
same,RLU,Time 14 s,52.0817 RLU
same,RLU,Time 16 s,11.4185 RLU
same,RLU,Time 18 s,29.9569 RLU
same,RLU,Time 18.781 s,46.048 RLU
same,RLU,Time 20.781 s,112.965 RLU
same,RLU,Time 22.781 s,165.689 RLU
same,RLU,Time 24.781 s,205.772 RLU
same,RLU,Time 26.781 s,242.163 RLU
same,RLU,Time 28.781 s,320.656 RLU
same,RLU,Time 30.781 s,367.762 RLU
same,RLU,Time 32.781 s,422.903 RLU
same,RLU,Time 34.781 s,499.119 RLU
same,RLU,Time 36.781 s,524.9 RLU
same,RLU,Time 38.781 s,565.569 RLU
same,RLU,Time 40.781 s,583.905 RLU
same,RLU,Time 42.781 s,606.644 RLU
same,RLU,Time 44.781 s,633.066 RLU
same,RLU,Time 46.781 s,639.921 RLU
same,RLU,Time 48.781 s,638.534 RLU
same,RLU,Time 50.781 s,641.518 RLU
same,RLU,Time 52.781 s,632.385 RLU
same,RLU,Time 54.781 s,644.317 RLU
same,RLU,Time 56.781 s,655.573 RLU
same,RLU,Time 58.781 s,678.513 RLU
same,RLU,Time 60.781 s,666.775 RLU
same,RLU,Time 62.781 s,667.745 RLU
same,RLU,Time 64.781 s,637 RLU
same,RLU,Time 66.781 s,647.88 RLU
same,RLU,Time 68.781 s,635.725 RLU
same,RLU,Time 70.781 s,644.081 RLU
same,RLU,Time 72.781 s,655.408 RLU
same,RLU,Time 74.781 s,647.263 RLU
same,RLU,Time 76.781 s,633.033 RLU
same,RLU,Time 78.781 s,631.561 RLU
same,RLU,Time 80.781 s,620.522 RLU
same,RLU,Time 82.781 s,627.467 RLU
same,RLU,Time 84.781 s,627.103 RLU
same,RLU,Time 86.781 s,578.642 RLU
same,RLU,Time 88.781 s,568.631 RLU
same,RLU,Time 90.781 s,548.759 RLU
same,RLU,Time 92.781 s,576.256 RLU
same,RLU,Time 94.781 s,543.082 RLU
same,RLU,Time 96.781 s,562.136 RLU
same,RLU,Time 98.781 s,521.114 RLU
same,RLU,Time 100.781 s,533.293 RLU
same,RLU,Time 102.781 s,509.746 RLU
same,RLU,Time 104.781 s,492.298 RLU
same,RLU,Time 106.781 s,485.694 RLU
same,RLU,Time 108.781 s,481.982 RLU
same,RLU,Time 110.781 s,458.143 RLU
same,RLU,Time 112.781 s,439.768 RLU
same,RLU,Time 114.781 s,433.077 RLU
same,RLU,Time 116.781 s,415.823 RLU
same,RLU,Time 118.781 s,408.859 RLU
same,RLU,Time 120.781 s,392.039 RLU
same,RLU,Time 122.781 s,431.314 RLU
same,RLU,Time 124.781 s,392.828 RLU
same,RLU,Time 126.781 s,373.554 RLU
same,RLU,Time 128.781 s,347.376 RLU
same,RLU,Time 130.781 s,337.354 RLU
same,RLU,Time 132.781 s,314.537 RLU
same,RLU,Time 134.781 s,326.444 RLU
same,RLU,Time 136.781 s,292.52 RLU
same,RLU,Time 137.562 s,313.513 RLU
same,RLU,Time 143.562 s,250.659 RLU
same,RLU,Time 149.562 s,229.584 RLU
same,RLU,Time 155.562 s,203.982 RLU
same,RLU,Time 161.562 s,211.817 RLU
same,RLU,Time 167.562 s,206.485 RLU
same,RLU,Time 173.562 s,171.281 RLU
same,RLU,Time 179.562 s,153.445 RLU
same,RLU,Time 185.562 s,144.359 RLU
same,RLU,Time 191.562 s,143.458 RLU
same,RLU,Time 197.562 s,135.182 RLU
same,RLU,Time 203.562 s,115.034 RLU
same,RLU,Time 209.562 s,107.877 RLU
same,RLU,Time 215.562 s,83.8781 RLU
same,RLU,Time 221.562 s,20.807 RLU
same,RLU,Time 227.562 s,27.2515 RLU
same,RLU,Time 233.562 s,-2.456 RLU
same,RLU,Time 239.562 s,17.5402 RLU
same,RLU,Time 245.562 s,-0.008323 RLU
same,RLU,Time 293.562 s,2 RLU
same,RLU,Time 299.562 s,-5.681 RLU
same,RLU,Time 305.562 s,20.6398 RLU
same,RLU,Time 311.562 s,25.3808 RLU
same,RLU,Time 317.562 s,16.3914 RLU
same,RLU,Time 323.562 s,41.1546 RLU
same,RLU,Time 329.562 s,-2.456 RLU
same,RLU,Time 335.562 s,34.2464 RLU
same,RLU,Time 341.562 s,21.8644 RLU
same,RLU,Time 347.562 s,15.2738 RLU
same,RLU,Time 353.562 s,29.9395 RLU
same,RLU,Time 359.562 s,27.2515 RLU
same,Activation threshold concentration Tas2r144,p < 0.01 vs empty vector,100 µM
